The values below are quoted from earlier work in US20240293789A1, “Encapsulation of Functional Additives in Partially-Open Microcapsules” (priority 2023, published 2024).

For this data set the following is noted: common solvents used for the encapsulated materials; reference table.

For the compound `COCCOC` [1,2-dimethoxy-ethane (glyme, DME), 1,2-dimethoxy-ethane], the solubility in water result is “Miscible”.

Consider `CN(C)P(N(C)C)N(C)C` [Hexamethylphosphorous triamide (HMPT), Hexamethylphosphorous triamide], for which the solubility in water entry is reported as “Miscible”. For the compound `C1CCCCC1` [cyclohexane], the solubility in water is reported as 0.0055 g/100 g.

For `CCOCC` [diethyl ether], the solubility in water is 7.5 g/100 g. As to `COCCOCCOC` [diethylene glycol dimethyl ether], the solubility in water entry was “Miscible”. Regarding `CCO` [ethanol], the solubility in water entry is “Miscible”. On to `CCOC(C)=O` [ethyl acetate], for which the solubility in water is reported as 8.7 g/100 g. As to `OCC(O)CO` [glycerin], the solubility in water entry is recorded as “Miscible”. In the case of `CCCCCCC` [heptane], the solubility in water is 0.01 g/100 g. For `CCCCCC` [hexane], the solubility in water is on record as 0.0014 g/100 g. Turning to `Cc1cccc(C)c1` [m-xylene], the solubility in water entry was “Insoluble”. Consider `Cc1ccccc1C` [o-xylene], for which the solubility in water result is “Insoluble”.

As for `Cc1ccc(C)cc1` [p-xylene], the solubility in water entry is “Insoluble”. Regarding `CCCCC` [pentane], the solubility in water is 0.04 g/100 g.
